These results are taken from patent US20230002374A1, “GPR52 MODULATOR COMPOUNDS” (Heptares Therapeutics Limited, priority 2019, published 2023).

Read-outs that look alike come from different tables or passages of the source.

The target in this assay is human GPR52 (Homo sapiens, UniProt Q9Y2T5). The assay is described as follows: GPR52 Agonist Functional cAMP Assay.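 As to all read-outs here: HEKf cells transduced with GPR52 BacMam for 24 h, 2000 per well, exposed to compounds 30 min at 37° C with 0.5 mM IBMX, cAMP read by HTRF.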 To be noted: for EC50: pEC50 average, HEKf cells infected with human GPR52 BacMam virus, cAMP HTRF, 30 min at 37° C.
Sequence of human GPR52 (Q9Y2T5 whole entry): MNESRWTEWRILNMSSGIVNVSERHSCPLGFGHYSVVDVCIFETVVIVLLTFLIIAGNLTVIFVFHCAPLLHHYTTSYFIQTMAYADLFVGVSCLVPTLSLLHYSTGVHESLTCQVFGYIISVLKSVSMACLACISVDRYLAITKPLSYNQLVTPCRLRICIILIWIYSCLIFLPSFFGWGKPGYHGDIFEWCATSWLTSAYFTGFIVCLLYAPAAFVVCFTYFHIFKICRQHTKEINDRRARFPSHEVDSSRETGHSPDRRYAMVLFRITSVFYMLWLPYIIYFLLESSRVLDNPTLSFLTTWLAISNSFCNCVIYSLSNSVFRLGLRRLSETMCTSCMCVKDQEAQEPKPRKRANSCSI
Setting [1] is: maximal response normalised to DMSO (0%) and maximal compound 7m (J. Med. Chem., 2014, 57, 5226) response (100%).

`COc1cc(Cc2cc(-n3ncc4c3CCNC4=O)ccn2)ccc1C(F)(F)F` [Example 60, 1-(2-(3-methoxy-4-(trifluoromethyl)benzyl)pyridin-4-yl)-1,5,6,7-tetrahydro-4H-pyrazolo[4,3-c]pyridin-4-one] showed an EC50 of 398 nM. The molecule further registered an Emax under setting [1] of 83%.

`O=C1NCCCc2c1nnn2-c1cc(Cc2cccc(C(F)(F)F)c2)ccn1` [Example 41, 1-(4-(3-(trifluoromethyl)benzyl)pyridin-2-yl)-5,6,7,8-tetrahydro-[1,2,3]triazolo[4,5-c]azepin-4(1H)-one] showed an EC50 of 794 nM. The molecule also yielded an Emax under setting [1] of 90%.

Turning to `Cc1nn(-c2ccnc(Cc3cc(F)c(Cl)c(F)c3)c2)c2c1C(=O)NCC2` [Example 90, 1-(2-(4-chloro-3,5-difluorobenzyl)pyridin-4-yl)-3-methyl-1,5,6,7-tetrahydro-4H-pyrazolo[4,3-c]pyridin-4-one], the EC50 is 20 nM. Also, the Emax under setting [1] worked out at 87%.

`O=C1NCCCc2c1cnn2-c1cc(Cc2cc(F)cc(C(F)(F)F)c2)ccn1` [Example 10, 1-(4-(3-fluoro-5-(trifluoromethyl)benzyl)pyridin-2-yl)-5,6,7,8-tetrahydropyrazolo[4,3-c]azepin-4(1H)-one] gave an EC50 of 7.94 nM. The same molecule gave an Emax under setting [1] of 90%.

On to `Cc1nn(-c2ccnc(Cc3ccc(OC(F)F)c(F)c3)c2)c2c1C(=O)NCC2` [Example 81, 1-(2-(4-(difluoromethoxy)-3-fluorobenzyl)pyridin-4-yl)-3-methyl-1,5,6,7-tetrahydro-4H-pyrazolo[4,3-c]pyridin-4-one], for which a half-maximal effect (EC50) was put at 10 nM. Under setting [1], this molecule returned an Emax of 70%.

For the molecule `COc1ccc(Cc2cc(-n3nc(C)c4c3CCNC4=O)ccn2)cn1` [Example 92, 1-(2-((6-methoxypyridin-3-yl)methyl)pyridin-4-yl)-3-methyl-1,5,6,7-tetrahydro-4H-pyrazolo[4,3-c]pyridin-4-one], the EC50 was 631 nM. The molecule further showed an Emax under setting [1] of 74%.

The molecule `CC1CNC(=O)c2cnn(-c3ccnc(Cc4cc(F)cc(C(F)(F)F)c4)c3)c21` (centres unmarked) [Example 50, 1-(2-(3-fluoro-5-(trifluoromethyl)benzyl)pyridin-4-yl)-7-methyl-1,5,6,7-tetrahydro-4H-pyrazolo[4,3-c]pyridin-4-one] showed an EC50 of 39.8 nM. Besides, the Emax under setting [1] turned out to be 95%.

`Cc1nn(-c2ccnc(C(O)c3cc(F)cc(C(F)(F)F)c3)c2)c2c1C(=O)NCC2` (single isomer, unassigned) [117 Isomer 1, 1-(2-((3-fluoro-5-(trifluoromethyl)phenyl)(hydroxy)methyl)pyridin-4-yl)-3-methyl-1,5,6,7-tetrahydro-4H-pyrazolo[4,3-c]pyridin-4-one] gave an EC50 of 251 nM. Further, the Emax under setting [1] turned out to be 83%.

`O=C1NCCc2c1cnn2-c1ccnc(Cc2cc(C(F)(F)F)cc(C(F)(F)F)c2)c1` [Example 34, 1-(2-(3,5-bis(trifluoromethyl)benzyl)pyridin-4-yl)-1,5,6,7-tetrahydro-4H-pyrazolo[4,3-c]pyridin-4-one] had an EC50 of 1000 nM. The molecule also registered an Emax under setting [1] of 54%.

As for `O=C1NCCc2c1cnn2-c1ccnc(Cc2cc(F)cc(C3CC3)c2)c1` [Example 53, 1-(2-(3-cyclopropyl-5-fluorobenzyl)pyridin-4-yl)-1,5,6,7-tetrahydro-4H-pyrazolo[4,3-c]pyridin-4-one], a half-maximal response (EC50) required 6.31 nM. Under setting [1], the Emax is 100%.

Turning to `Cc1cnc(Cc2cc(F)cc(C(F)(F)F)c2)cc1-n1ncc2c1CCNC2=O` [Example 108, 1-(2-(3-fluoro-5-(trifluoromethyl)benzyl)-5-methylpyridin-4-yl)-1,5,6,7-tetrahydro-4H-pyrazolo[4,3-c]pyridin-4-one], the EC50 was 79.4 nM. For the same molecule, the Emax under setting [1] was determined as 80%.

Turning to `O=C1NCCc2c1cnn2-c1ccnc(Cc2cnc(OC(F)F)c(F)c2)c1` [Example 110, 1-(2-((6-(difluoromethoxy)-5-fluoropyridin-3-yl)methyl)pyridin-4-yl)-1,5,6,7-tetrahydro-4H-pyrazolo[4,3-c]pyridin-4-one], the EC50 is 501 nM. In addition, the Emax under setting [1] was found to be 74%.

`Cc1nn(-c2cc(Cc3cc(F)cc(C(F)(F)F)c3)ccn2)c2c1C(=O)NCC2` [Example 95, 1-(4-(3-fluoro-5-(trifluoromethyl)benzyl)pyridin-2-yl)-3-methyl-1,5,6,7-tetrahydro-4H-pyrazolo[4,3-c]pyridin-4-one] showed an EC50 of 6.31 nM. Also, the Emax under setting [1] is 98%.

With `Cc1cc(Cc2ccnc(-n3ncc4c3CCN(C)C4=O)c2)cnc1F` [Example 7, 1-(4-((6-fluoro-5-methylpyridin-3-yl)methyl)pyridin-2-yl)-5-methyl-1,5,6,7-tetrahydro-4H-pyrazolo[4,3-c]pyridin-4-one], the EC50 was 200 nM. Moreover, the maximal response (Emax) under setting [1] turned out to be 83%.

As to `Cc1cc(Cc2ccnc(-n3nc(C)c4c3CCNC4=O)c2)cnc1F` [Example 83, 1-(4-((6-fluoro-5-methylpyridin-3-yl)methyl)pyridin-2-yl)-3-methyl-1,5,6,7-tetrahydro-4H-pyrazolo[4,3-c]pyridin-4-one], the EC50 was 25.1 nM. The molecule further yielded an Emax under setting [1] of 93%.

`O=C1NCCc2c1ccn2-c1ccnc(Cc2cc(F)cc(C(F)(F)F)c2)c1` [Example 51, 1-(2-(3-fluoro-5-(trifluoromethyl)benzyl)pyridin-4-yl)-1,5,6,7-tetrahydro-4H-pyrrolo[3,2-c]pyridin-4-one] gave an EC50 of 126 nM. The Emax under setting [1] stood at 95%.

In turn, `CC1Cc2c(cnn2-c2ccnc(Cc3cc(F)cc(C(F)(F)F)c3)c2)C(=O)N1` (centres unmarked) [Example 40, 1-(2-(3-fluoro-5-(trifluoromethyl)benzyl)pyridin-4-yl)-6-methyl-1,5,6,7-tetrahydro-4H-pyrazolo[4,3-c]pyridin-4-one] gave an EC50 of 100 nM. The Emax under setting [1] worked out at 93%.

With `Cc1nn(-c2ccnc(Cc3cc(F)c(F)c(Cl)c3)c2)c2c1C(=O)NCC2` [Example 84, 1-(2-(3-chloro-4,5-difluorobenzyl)pyridin-4-yl)-3-methyl-1,5,6,7-tetrahydro-4H-pyrazolo[4,3-c]pyridin-4-one], the Emax was found to be 95% and the EC50 is 2.51 nM.

Molecule `O=C1NCCc2c1cnn2-c1ccnc(Cc2cc(F)cc(Cl)c2)c1` [Example 20, 1-(2-(3-chloro-5-fluorobenzyl)pyridin-4-yl)-1,5,6,7-tetrahydro-4H-pyrazolo[4,3-c]pyridin-4-one] had an EC50 of 158 nM. This molecule also returned an Emax under setting [1] of 101%.

`Cc1cc(Cc2ccnc(-n3ncc4c3CCNC4=O)c2)cnc1F` [Example 6, 1-(4-((6-fluoro-5-methylpyridin-3-yl)methyl)pyridin-2-yl)-1,5,6,7-tetrahydro-4H-pyrazolo[4,3-c]pyridin-4-one] showed a concentration giving a half-maximal response (EC50) of 501 nM. Also, under setting [1], the Emax is 82%.

On to `O=C1NCCc2c1cnn2-c1ccnc(Cc2ccc(C(F)(F)F)cc2)c1` [Example 32, 1-(2-(4-(trifluoromethyl)benzyl)pyridin-4-yl)-1,5,6,7-tetrahydro-4H-pyrazolo[4,3-c]pyridin-4-one], for which a half-maximal effect (EC50) was put at 398 nM. Further, under setting [1], the Emax is 61%.

Take `O=C1NCCc2c1cnn2-c1ccnc(Cc2cc(Cl)cc(C(F)(F)F)c2)c1` [Example 27, 1-(2-(3-chloro-5-(trifluoromethyl)benzyl)pyridin-4-yl)-1,5,6,7-tetrahydro-4H-pyrazolo[4,3-c]pyridin-4-one]: the EC50 was 79.4 nM. The same molecule showed an Emax under setting [1] of 90%.
